# Tested on: SARS-CoV-2 variants Alpha, Beta, Delta, Omicron BA.1, and XBB.1.5
# Format: cell-based
compound,measurement,value
"O=S1(=O)O[C@@H]2[C@H](O)[C@@H](O)[C@H](O)[C@@H](CO)[C@@H]2O1 [Compound 11, 1,6-epi-cyclophellitol cyclosulfate]","reduction in infectious virus titer, SARS-CoV-2 variants",~100 fold

# — paper PMC11363342 (ACS Central Science, 2024)
